Consider 18 compounds from PubChem BioAssay AID256 (DTP/NCI, 2004).

“And” between values parts separate entries of the source, which are not always exact repeats. Identical values can stand only once. Inconclusive results and toxic doses are left out.

This test deals with CD2F1 mice, L1210 leukemia ip, survival T/C. The test can be described thus: NCI In Vivo Anticancer Drug Screen. Data for tumor model L1210 Leukemia (intraperitoneal) in CD2F1 (CDF1) mice. The note with it: higher = longer survival. The method in brief:
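Vehicle-treated tumor-bearing mice served as controls (C) for compound-treated mice (T). Reported figure is T divided by C.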

[1] abbreviates: endpoint: mean survival time, dose: 200.0 mg/kg/injection, schedule: Q01DX009 (ip), vehicle: other.
Setting [2] is: endpoint: mean survival time, dose: 100.0 mg/kg/injection, schedule: Q01DX009 (ip), vehicle: saline with Tween-80.
[3] abbreviates: endpoint: mean survival time, dose: 200.0 mg/kg/injection, schedule: Q01DX009 (ip), vehicle: saline with Tween-80.
[4] abbreviates: endpoint: mean survival time, dose: 50.0 mg/kg/injection, schedule: Q01DX009 (ip), vehicle: saline with Tween-80.
Where [5] appears, read: endpoint: mean survival time, dose: 50.0 mg/kg/injection, schedule: Q04DX002 (ip), vehicle: saline with Tween-80.
Setting [6] is: endpoint: mean survival time, dose: 100.0 mg/kg/injection, schedule: Q04DX002 (ip), vehicle: saline with Tween-80.
Where [7] appears, read: endpoint: mean survival time, dose: 200.0 mg/kg/injection, schedule: Q04DX002 (ip), vehicle: saline with Tween-80.
Setting [8] is: endpoint: mean survival time, dose: 400.0 mg/kg/injection, schedule: Q04DX002 (ip), vehicle: saline with Tween-80.

As to `CCOC(=O)Nc1ccc(F)cc1`, the T/C by setting is: (endpoint: mean survival time, dose: 100.0 mg/kg/injection, schedule: Q01DX009 (ip), vehicle: other) 98 % of control; under setting [1], 98 % of control; (endpoint: mean survival time, dose: 400.0 mg/kg/injection, schedule: Q01DX009 (ip), vehicle: other) 107 % of control.
Take `CN(C)Cc1cc(O)cc(CN(C)C)c1O`: the T/C (endpoint: mean survival time, dose: 75.0 mg/kg/injection, schedule: Q01DX001 (ip), vehicle: other) is 98 % of control; the T/C (endpoint: mean survival time, dose: 150.0 mg/kg/injection, schedule: Q01DX001 (ip), vehicle: other) is 96 % of control; the T/C (endpoint: mean survival time, dose: 300.0 mg/kg/injection, schedule: Q01DX001 (ip), vehicle: other) was 98 % of control.
For the compound `C#CC(C)(O)CCCCCC` (stereo not drawn), the T/C under setting [2] was 113 % of control and the T/C under setting [3] was 100 % of control.
As for `S=C(N/N=C/c1ccccn1)N/N=C/c1ccccn1`, the T/C by setting is: (endpoint: mean survival time, dose: 20.0 mg/kg/injection, schedule: Q01DX009 (ip), vehicle: saline with Tween-80) 102 % of control; (endpoint: mean survival time, dose: 33.0 mg/kg/injection, schedule: Q01DX009 (ip), vehicle: saline with Tween-80) 117 % of control; under setting [4], 113 % of control; (endpoint: mean survival time, dose: 75.0 mg/kg/injection, schedule: Q01DX009 (ip), vehicle: saline with Tween-80) 119 % of control and 101 % of control.
For the compound `COC(C(=O)C(O)C(C)O)C1CC2C=C3C=C(OC4CC(OC5CC(O)C(OC)C(C)O5)C(OC(C)=O)C(C)O4)C(C)C(=O)C3=C(O)C2=C(O)C1OC1CC(OC2CC(OC3CC(C)(O)C(O)C(C)O3)C(O)C(C)O2)C(O)C(C)O1` (stereo not drawn), the T/C was 92 % of control and 101 % of control and 104 % of control (endpoint: mean survival time, dose: 0.25 mg/kg/injection, schedule: Q01DX009 (ip), vehicle: saline with Tween-80); 100 % of control and 101 % of control (2×) (endpoint: mean survival time, dose: 0.5 mg/kg/injection, schedule: Q01DX009 (ip), vehicle: saline with Tween-80); 124 % of control (endpoint: mean survival time, dose: 0.5 mg/kg/injection, schedule: Q01DX009 (ip), vehicle: saline); 101 % of control and 102 % of control (endpoint: mean survival time, dose: 1.0 mg/kg/injection, schedule: Q01DX009 (ip), vehicle: saline with Tween-80); 98 % of control (endpoint: mean survival time, dose: 1.0 mg/kg/injection, schedule: Q01DX009 (ip), vehicle: saline); 121 % of control and 108 % of control (endpoint: mean survival time, dose: 2.0 mg/kg/injection, schedule: Q01DX009 (ip), vehicle: saline with Tween-80). In addition, the T/C reads like this: (endpoint: mean survival time, dose: 4.0 mg/kg/injection, schedule: Q01DX009 (ip), vehicle: saline) 115 % of control; (endpoint: mean survival time, dose: 8.0 mg/kg/injection, schedule: Q01DX009 (ip), vehicle: saline with Tween-80) 189 % of control; (endpoint: mean survival time, dose: 8.0 mg/kg/injection, schedule: Q01DX009 (ip), vehicle: saline) 124 % of control.
Take `ClC1(Cl)C2CCCCC21` (stereo not drawn): the T/C by setting is: (endpoint: mean survival time, dose: 50.0 mg/kg/injection, schedule: Q01DX009 (ip), vehicle: saline sonified) 98 % of control; (endpoint: mean survival time, dose: 100.0 mg/kg/injection, schedule: Q01DX009 (ip), vehicle: saline sonified) 98 % of control; (endpoint: mean survival time, dose: 100.0 mg/kg/injection, schedule: Q04DX003 (ip), vehicle: saline with Tween-80) 98 % of control; (endpoint: mean survival time, dose: 200.0 mg/kg/injection, schedule: Q01DX009 (ip), vehicle: saline sonified) 97 % of control; (endpoint: mean survival time, dose: 200.0 mg/kg/injection, schedule: Q04DX003 (ip), vehicle: saline with Tween-80) 97 % of control.
On to `CC(C)C(C)/C=C\C(C)C1CCC2C3=CC=C4CC(OC(=O)c5ccccc5)CCC4(C)C3=CCC21C` (stereo not drawn), for which the T/C reads like this: (endpoint: mean survival time, dose: 50.0 mg/kg/injection, schedule: Q01DX009 (ip), vehicle: Klucel (hydroxypropylcellulose) (HPC)) 93 % of control; (endpoint: mean survival time, dose: 100.0 mg/kg/injection, schedule: Q01DX009 (ip), vehicle: Klucel (hydroxypropylcellulose) (HPC)) 110 % of control; (endpoint: mean survival time, dose: 200.0 mg/kg/injection, schedule: Q01DX009 (ip), vehicle: Klucel (hydroxypropylcellulose) (HPC)) 96 % of control.
Consider `CC(O)CNCCNC(=O)CNC(=O)C=[N+]=[N-]` (stereo not drawn), for which the T/C was 108 % of control under setting [1] and 155 % of control (endpoint: mean survival time, dose: 800.0 mg/kg/injection, schedule: Q01DX009 (ip), vehicle: other).
Take `CCSc1nc(N)c2ncn(C3OC(C)C(O)C(O)C3O)c2n1` (stereo not drawn): the T/C was 106 % of control (endpoint: median survival time, dose: 12.5 mg/kg/injection, schedule: Q01DX005 (ip), vehicle: saline with Tween-80); 101 % of control (endpoint: median survival time, dose: 25.0 mg/kg/injection, schedule: Q01DX005 (ip), vehicle: saline with Tween-80); 94 % of control (endpoint: median survival time, dose: 50.0 mg/kg/injection, schedule: Q01DX005 (ip), vehicle: saline with Tween-80); 103 % of control (endpoint: median survival time, dose: 100.0 mg/kg/injection, schedule: Q01DX005 (ip), vehicle: saline with Tween-80); 100 % of control (endpoint: median survival time, dose: 200.0 mg/kg/injection, schedule: Q01DX005 (ip), vehicle: saline with Tween-80).
As for `COc1ccc2cc1Oc1ccc(cc1)C[C@@H]1c3cc(c(OC)cc3CCN1C)Oc1c(OC)c(OC)cc3c1[C@H](C2)N(C)CC3`, the T/C is, setting by setting: under setting [5], 94 % of control; under setting [6], 94 % of control; under setting [7], 94 % of control; under setting [8], 90 % of control.
Consider `C=CCNc1ncnc2c1cnn2C`, for which the T/C is 106 % of control (endpoint: mean survival time, dose: 100.0 mg/kg/injection, schedule: Q04DX003 (ip), vehicle: saline) and 104 % of control (endpoint: mean survival time, dose: 200.0 mg/kg/injection, schedule: Q04DX003 (ip), vehicle: saline).
Regarding `COc1cc(OC)c(NC(=O)OCCOc2ccc(Cl)cc2Cl)cc1Cl`, the T/C under setting [4] is 92 % of control and the T/C under setting [2] is 88 % of control.
On to `C[C@@H]1C[C@H]2[C@@H]3CCC4=CC(=O)C=C[C@]4(C)[C@@]3(F)[C@@H](O)C[C@]2(C)[C@@]1(O)C(=O)CO`, for which the T/C by setting is: (endpoint: mean survival time, dose: 3.12 mg/kg/injection, schedule: Q01DX009 (ip), vehicle: suspension in saline) 116 % of control; (endpoint: mean survival time, dose: 6.25 mg/kg/injection, schedule: Q01DX009 (ip), vehicle: suspension in saline) 108 % of control; (endpoint: mean survival time, dose: 12.5 mg/kg/injection, schedule: Q01DX009 (ip), vehicle: suspension in saline) 108 % of control; (endpoint: mean survival time, dose: 25.0 mg/kg/injection, schedule: Q01DX009 (ip), vehicle: suspension in saline) 122 % of control; (endpoint: mean survival time, dose: 50.0 mg/kg/injection, schedule: Q01DX009 (ip), vehicle: suspension in saline) 110 % of control.
`COc1ccc(-c2cnc(C(N)=O)c(=O)[nH]2)cc1`: the T/C was 100 % of control under setting [2]; 96 % of control under setting [3]; 101 % of control (endpoint: mean survival time, dose: 400.0 mg/kg/injection, schedule: Q01DX009 (ip), vehicle: saline with Tween-80).
As for `COC(=O)[C@@H]1c2cc3c(c(O)c2[C@@H](OC2OC(C)C(OC)C(C)(OC)C2OC)C[C@]1(C)O)C(=O)c1c(O)cc2c(c1C3=O)O[C@H]1O[C@]2(C)[C@H](O)[C@@H](N(C)C)[C@@H]1O` (stereo partly drawn), the T/C is 120 % of control and 112 % of control (endpoint: mean survival time, dose: 0.25 mg/kg/injection, schedule: Q01DX009 (ip), vehicle: other); 116 % of control and 108 % of control (endpoint: mean survival time, dose: 0.5 mg/kg/injection, schedule: Q01DX009 (ip), vehicle: other); 93 % of control and 110 % of control (endpoint: mean survival time, dose: 1.0 mg/kg/injection, schedule: Q01DX009 (ip), vehicle: other).
As for `CCCC(=O)C1=C(O)C(CC2=C(O)C(C)(C)C(=O)C(C(=O)CCC)=C2O)=C(O)C(C)(C)C1=O`, the T/C is 98 % of control (endpoint: mean survival time, dose: 100.0 mg/kg/injection, schedule: Q01DX001 (ip), vehicle: saline) and 101 % of control (endpoint: mean survival time, dose: 200.0 mg/kg/injection, schedule: Q01DX001 (ip), vehicle: saline).
For `OCC1C2C=CC(c3ccccc32)C1CO` (stereo not drawn), the T/C under setting [5] was 106 % of control, the T/C under setting [6] was 88 % of control and the T/C under setting [7] was 95 % of control.
On to `NC(=S)N/N=C/c1ccc(I)cn1`, for which the T/C runs as follows: under setting [6], 93 % of control; under setting [7], 93 % of control; under setting [8], 93 % of control.
